Laboratory results: US20230398130A1, “METHODS AND COMPOSITIONS FOR DIFFERENTIATING STEM CELLS” (Massachusetts Institute of Technology, priority 2020, published 2023)

Key:
ISC-enriched organoids [1] = assay: Primary screen, 384-well 2.5-D organoid differentiation (ENR+CD, 6 days, Target Selective Inhibitor Library, vs whole-plate median): ATP (CellTiter-Glo 3D, CTG); conditions: for Dose.FC.CTG: FC vs plate median; for SSMD.CTG: strictly standardized mean difference; for Dose.FC.CTG (log 2 fold change, ATP): vs plate median
ISC-enriched organoids [2] = assay: Primary screen, 384-well 2.5-D organoid differentiation (ENR+CD, 6 days): basal lysozyme secretion (LYZ.NS); type: cell-based, murine; conditions: for Dose.FC.LYZ.NS: FC vs plate median; for SSMD.LYZ.NS: strictly standardized mean difference; for Dose.FC.LYZ.NS (log 2 fold change, basal lysozyme secretion): vs plate median
Source text: (§1) High-throughput screening.

ISC-enriched organoids [3] = assay: Primary screen, 384-well 2.5-D organoid differentiation (ENR+CD, 6 days): carbachol-induced lysozyme secretion (LYZ.S); type: cell-based, murine; conditions: for Dose.FC.LYZ.S / Z.LYZ.S / SSMD.LYZ.S: primary screen; for Dose.FC.LYZ.S: FC vs plate median; for Z.LYZ.S: standard z score; for SSMD.LYZ.S: strictly standardized mean difference; for Dose.FC.LYZ.S (log 2 fold change, carbachol-induced lysozyme secretion): vs plate median
Source text: as §1

[4] = Dose 0.08 uM, primary screen, standard z score
[5] = Dose 0.40 uM, primary screen, standard z score
[6] = Dose 2.00 uM, primary screen, standard z score
[7] = Dose 10.00 uM, primary screen, standard z score
[8] = primary screen, 1st of the 4 dose lines of the treatment (dose not given)
[9] = primary screen, 2nd of the 4 dose lines of the treatment (dose not given)
[10] = primary screen, 3rd of the 4 dose lines of the treatment (dose not given)
[11] = primary screen, 4th of the 4 dose lines of the treatment (dose not given)
[12] = 1st of the 4 dose lines of the treatment (dose not given)
[13] = 2nd of the 4 dose lines of the treatment (dose not given)
[14] = 3rd of the 4 dose lines of the treatment (dose not given)
[15] = 4th of the 4 dose lines of the treatment (dose not given)
[16] = Dose 0.08 uM, standard z score of FC
[17] = Dose 0.40 uM, standard z score of FC
[18] = Dose 2.00 uM, standard z score of FC
[19] = Dose 10.00 uM, standard z score of FC

In the case of `CC(C)c1ccc(NC(=O)Cn2cnc3c2c(=O)n(C)c(=O)n3C)cc1` [HC-030031], the Dose.FC.CTG (ISC-enriched organoids [1]; Dose 0.08 uM, primary screen) is reported as 0.082 log 2 fold change, the Z.CTG (ISC-enriched organoids [1]; [4]) is reported as 0.195 and the Dose.FC.CTG (ISC-enriched organoids [1]; Dose 0.40 uM, primary screen) is reported as 0.191 log 2 fold change. The Z.CTG (ISC-enriched organoids [1]; [5]) was 0.457, the Dose.FC.CTG (ISC-enriched organoids [1]; Dose 2.00 uM, primary screen) was −0.008 log 2 fold change and the Z.CTG (ISC-enriched organoids [1]; [6]) was −0.019. For the same molecule, the Dose.FC.CTG (ISC-enriched organoids [1]; Dose 10.00 uM, primary screen) was −0.241 log 2 fold change, the Z.CTG (ISC-enriched organoids [1]; [7]) was −0.575 and the SSMD.CTG (ISC-enriched organoids [1]; [8]) was 0.200. It also gave an SSMD.CTG (ISC-enriched organoids [1]; [9]) of 0.606, an SSMD.CTG (ISC-enriched organoids [1]; [10]) of −0.025 and an SSMD.CTG (ISC-enriched organoids [1]; [11]) of −0.715. For the same molecule, the Dose.FC.LYZ.NS (ISC-enriched organoids [2]; Dose 0.08 uM, primary screen) was 0.063 log 2 fold change, the Z.LYZ.NS (ISC-enriched organoids [2]; [4]) was 0.547 and the Dose.FC.LYZ.NS (ISC-enriched organoids [2]; Dose 0.40 uM, primary screen) was 0.033 log 2 fold change. It also gave a Z.LYZ.NS (ISC-enriched organoids [2]; [5]) of 0.291, a Dose.FC.LYZ.NS (ISC-enriched organoids [2]; Dose 2.00 uM, primary screen) of −0.007 log 2 fold change and a Z.LYZ.NS (ISC-enriched organoids [2]; [6]) of −0.057. For the same molecule, the Dose.FC.LYZ.NS (ISC-enriched organoids [2]; Dose 10.00 uM, primary screen) was −0.047 log 2 fold change, the Z.LYZ.NS (ISC-enriched organoids [2]; [7]) was −0.411 and the SSMD.LYZ.NS (ISC-enriched organoids [2]; [8]) was 0.506. For the same molecule, the SSMD.LYZ.NS (ISC-enriched organoids [2]; [9]) was 0.276, the SSMD.LYZ.NS (ISC-enriched organoids [2]; [10]) was −0.048 and the SSMD.LYZ.NS (ISC-enriched organoids [2]; [11]) was −0.383. For the same molecule, the Dose.FC.LYZ.S (ISC-enriched organoids [3]; Dose 0.08 uM) was 0.090 log 2 fold change, the Dose.FC.LYZ.S (ISC-enriched organoids [3]; Dose 0.40 uM) was 0.097 log 2 fold change and the Dose.FC.LYZ.S (ISC-enriched organoids [3]; Dose 2.00 uM) was −0.035 log 2 fold change. The Dose.FC.LYZ.S (ISC-enriched organoids [3]; Dose 10.00 uM) was 0.077 log 2 fold change, the Z.LYZ.S (ISC-enriched organoids [3]; [12]) was 0.584 and the Z.LYZ.S (ISC-enriched organoids [3]; [13]) was 0.627. For the same molecule, the Z.LYZ.S (ISC-enriched organoids [3]; [14]) was −0.225, the Z.LYZ.S (ISC-enriched organoids [3]; [15]) was 0.499 and the SSMD.LYZ.S (ISC-enriched organoids [3]; [12]) was 0.499. The SSMD.LYZ.S (ISC-enriched organoids [3]; [13]) was 0.539, the SSMD.LYZ.S (ISC-enriched organoids [3]; [14]) was −0.200 and the SSMD.LYZ.S (ISC-enriched organoids [3]; [15]) was 0.322.

With `COc1cc2/c(=N/c3ccc(Br)cc3F)nc[nH]c2cc1OCC1CCN(C)CC1` [Vandetanib (ZD6474)] the “Z.CTG (standard z score)” value (ISC-enriched organoids [1]; dose 0.08 uM) was −1.547, the “Dose.FC.CTG (log 2 fold change, ATP)” value (ISC-enriched organoids [1]; dose 0.08 uM) was −0.648 and the “Z.CTG (standard z score)” value (ISC-enriched organoids [1]; dose 0.40 uM) was −0.874. The “Dose.FC.CTG (log 2 fold change, ATP)” value (ISC-enriched organoids [1]; dose 0.40 uM) was −0.366, the “Z.CTG (standard z score)” value (ISC-enriched organoids [1]; dose 2.00 uM) was −2.089 and the “Dose.FC.CTG (log 2 fold change, ATP)” value (ISC-enriched organoids [1]; dose 2.00 uM) was −0.874. The “Z.CTG (standard z score)” value (ISC-enriched organoids [1]; dose 10.00 uM) was −2.880, the “Dose.FC.CTG (log 2 fold change, ATP)” value (ISC-enriched organoids [1]; dose 10.00 uM) was −1.206 and the “Z.LYZ.NS (standard z score)” value (ISC-enriched organoids [2]; dose 0.08 uM) was −0.594. For the same molecule, the “Dose.FC.LYZ.NS (log 2 fold change, basal lysozyme secretion)” value (ISC-enriched organoids [2]; dose 0.08 uM) was −0.068, the “Z.LYZ.NS (standard z score)” value (ISC-enriched organoids [2]; dose 0.40 uM) was −0.792 and the “Dose.FC.LYZ.NS (log 2 fold change, basal lysozyme secretion)” value (ISC-enriched organoids [2]; dose 0.40 uM) was −0.091. For the same molecule, the “Z.LYZ.NS (standard z score)” value (ISC-enriched organoids [2]; dose 2.00 uM) was −2.356, the “Dose.FC.LYZ.NS (log 2 fold change, basal lysozyme secretion)” value (ISC-enriched organoids [2]; dose 2.00 uM) was −0.271 and the “Z.LYZ.NS (standard z score)” value (ISC-enriched organoids [2]; dose 10.00 uM) was −2.594. For the same molecule, the “Dose.FC.LYZ.NS (log 2 fold change, basal lysozyme secretion)” value (ISC-enriched organoids [2]; dose 10.00 uM) was −0.298, the “Dose.FC.LYZ.S (log 2 fold change, carbachol-induced lysozyme secretion)” value (ISC-enriched organoids [3]; dose 0.08 uM) was −0.139 and the “Dose.FC.LYZ.S (log 2 fold change, carbachol-induced lysozyme secretion)” value (ISC-enriched organoids [3]; dose 0.40 uM) was −0.054. For the same molecule, the “Dose.FC.LYZ.S (log 2 fold change, carbachol-induced lysozyme secretion)” value (ISC-enriched organoids [3]; dose 2.00 uM) was −0.384 and the “Dose.FC.LYZ.S (log 2 fold change, carbachol-induced lysozyme secretion)” value (ISC-enriched organoids [3]; dose 10.00 uM) was −0.494.

`C1=N/C2=N/c3ccc(OCCN4CCCC4)c(c3)COC/C=C/COCc3cccc(c3)C(=C1)N2` [Pacritinib (SB1518)] gave a Dose.FC.CTG (ISC-enriched organoids [1]; Dose 0.08 uM, primary screen) of −0.006 log 2 fold change, a Z.CTG (ISC-enriched organoids [1]; [16]) of −0.014 and a Dose.FC.CTG (ISC-enriched organoids [1]; Dose 0.40 uM, primary screen) of 0.099 log 2 fold change. It also gave a Z.CTG (ISC-enriched organoids [1]; [17]) of 0.236, a Dose.FC.CTG (ISC-enriched organoids [1]; Dose 2.00 uM, primary screen) of −0.235 log 2 fold change and a Z.CTG (ISC-enriched organoids [1]; [18]) of −0.560. It also gave a Dose.FC.CTG (ISC-enriched organoids [1]; Dose 10.00 uM, primary screen) of −1.276 log 2 fold change, a Z.CTG (ISC-enriched organoids [1]; [19]) of −3.047 and a Dose.FC.LYZ.NS (ISC-enriched organoids [2]; Dose 0.08 uM, primary screen) of 0.091 log 2 fold change. The Z.LYZ.NS (ISC-enriched organoids [2]; [16]) was 0.795, the Dose.FC.LYZ.NS (ISC-enriched organoids [2]; Dose 0.40 uM, primary screen) was −0.034 log 2 fold change and the Z.LYZ.NS (ISC-enriched organoids [2]; [17]) was −0.299. For the same molecule, the Dose.FC.LYZ.NS (ISC-enriched organoids [2]; Dose 2.00 uM, primary screen) was −0.219 log 2 fold change, the Z.LYZ.NS (ISC-enriched organoids [2]; [18]) was −1.908 and the Dose.FC.LYZ.NS (ISC-enriched organoids [2]; Dose 10.00 uM, primary screen) was −0.275 log 2 fold change. It also gave a Z.LYZ.NS (ISC-enriched organoids [2]; [19]) of −2.391, a Dose.FC.LYZ.S (ISC-enriched organoids [3]; Dose 0.08 uM) of 0.066 log 2 fold change and a Dose.FC.LYZ.S (ISC-enriched organoids [3]; Dose 0.40 uM) of −0.032 log 2 fold change. It also gave a Dose.FC.LYZ.S (ISC-enriched organoids [3]; Dose 2.00 uM) of −0.304 log 2 fold change and a Dose.FC.LYZ.S (ISC-enriched organoids [3]; Dose 10.00 uM) of −0.419 log 2 fold change.
